# According to the supplement of paper PMC9103864:
# What was measured:
# [1] = tested on: BMSC (primary human bone marrow mesenchymal stromal cells); assay: absolute EC50 for viability; higher = less sensitive
# [2] = tested on: BMSC (primary human bone marrow mesenchymal stromal cells); assay: drug sensitivity score (DSS); higher = more sensitive
SMILES,absolute EC50 for viability [1] [µM],drug sensitivity score [2]
CC(C)(C)C[C@@H]1N[C@@H](C(=O)N[C@H]2CC[C@H](O)CC2)[C@H](c2cccc(Cl)c2F)[C@]12C(=O)Nc1cc(Cl)ccc12,2.49,10.5
CC(C)(C)c1cc(NC(=O)Nc2ccc(Oc3ccnc4[nH]c(=O)cnc34)cc2F)n(-c2ccccc2)n1,> 25,0
CC(C)Oc1ccc(C(=O)N[C@H](CNC(=O)CN(C)C)Cc2ccc(-c3cn4cccc([C@H](C)O)c4n3)cc2)cc1Cl,9.93,0
CCOc1ccn(-c2ccc(F)cc2)c(=O)c1C(=O)Nc1ccc(Oc2ccnc(N)c2Cl)c(F)c1,> 2.5,0
CC[C@@H]1[C@H](F)C(=O)N[C@@H]1COc1nccc2cc(C(N)=O)c(OC)cc12,> 10,0.3
CCc1cncnc1N1CCN(Cc2nc3ccc(C(F)(F)F)cc3[nH]2)CC1,> 10,1
CCn1c(-c2nonc2N)nc2c(C#CC(C)(C)O)ncc(OC[C@H]3CCCNC3)c21,> 10,6.3
CCn1c(-c2nonc2N)nc2cnc(Oc3cccc(NC(=O)c4ccc(OCCN5CCOCC5)cc4)c3)cc21,> 10,7.3
CCn1c(C(=O)N(C2CC2)C2CC2)cc2c3c(ncn3C)c(Nc3cc(C)n(C)n3)nc21,> 10,1
CCn1cc(-c2ccnc3[nH]c(-c4cccc(CN(C)C)c4)cc23)c(-c2ccc(NC(=O)N(C)C)cc2)n1,> 1,1.5
CN(C)CC#Cc1ccc(OCCCc2sc(N3CCc4cccc(C(=O)Nc5nc6ccccc6s5)c4C3)nc2C(=O)O)c(F)c1,> 10,0
CN(c1ncccc1CNc1nc(Nc2ccc3c(c2)CC(=O)N3)ncc1C(F)(F)F)S(C)(=O)=O,> 10,3.2
CN1CCN(C2CCC(n3cc(-c4ccc(Oc5ccccc5)cc4)c4c(N)ncnc43)CC2)CC1 (stereo unspecified),1,11.1
CNC(=O)c1ccc(C)c(-n2c(C)cc(OCc3ccc(F)cc3F)c(Br)c2=O)c1,> 1,0
CNC(=O)c1ccccc1Nc1nc(Nc2ccc3c(c2OC)CCC[C@H](N2CCN(CCO)CC2)C3)ncc1Cl,1.17,6.6
CNS(=O)(=O)Nc1nccc(Cc2c(C)c3ccc(Oc4ncccn4)cc3oc2=O)c1F,> 1,0
CNc1nc(-c2ccc3c(N)n[nH]c3c2)cc(N2C[C@@H](C(=O)NC3CCCCC3)CC[C@H]2C)n1,> 10,5.4
CNc1ncc2cc(-c3cc(NC(=O)NCCC(C)(C)C)c(F)cc3C)c(C)nc2n1,> 10,6.2
CONC(=O)c1ccccc1Nc1cc(Nc2cc(C)nn2C(C)C)ncc1Cl,> 1,0.1
CO[C@@H](C)Cn1c(=O)n(C)c2cnc3ccc(-c4cncc(C(C)(C)O)c4)cc3c21,0.257,10.5
COc1cc2ncnc(Oc3cccc(NC(=O)Nc4cc(C(C)(C)C(F)(F)F)on4)c3)c2cc1OC,> 10,4.6

SMILES,absolute EC50 for viability [1] [µM],drug sensitivity score [2]
COc1ccc(Cn2ccc3ccc(C(=O)NO)cc32)cc1,9.93,0
COc1ccc2[nH]cc(/C=C3\C(=O)Nc4ccc(NC(=O)CCN5CCCCC5)cc43)c2c1,7.38,9.6
C[C@@H](Oc1cc(-n2cnc3ccc(CN4CCN(C)CC4)cc32)sc1C(N)=O)c1ccccc1C(F)(F)F,1.89,8
C[C@@H](Oc1ccc2[nH]nc(/C=C/c3cnn(CCO)c3)c2c1)c1c(Cl)cncc1Cl,> 1,3.6
C[C@@H]1CN(CC(=O)Nc2ccc3c(c2)Cc2cccc(-c4cc(=O)cc(N5CCOCC5)o4)c2S3)C[C@H](C)O1,> 25,0.6
C[C@@]1(C(=O)Nc2ccc(F)nc2)CCCN1c1nc(Nc2cc(C3CC3)n[nH]2)c2cccn2n1,7.74,9.3
C[C@H]1C[C@@H](n2c(Nc3ccc(OC(F)(F)F)cc3)nc3cc(CCC(=O)O)ccc32)CC(C)(C)C1,> 10,0
C[C@H]1Oc2cc(cnc2N)-c2c(nn(C)c2C#N)CN(C)C(=O)c2ccc(F)cc21,> 1,0.2
Cc1c(-c2c(-c3ccc(F)o3)sc3ncnc(O[C@H](Cc4ccccc4OCc4ccnn4CC(F)(F)F)C(=O)O)c23)ccc(OCCN2CCN(C)CC2)c1Cl,> 1,0
Cc1c(-c2ccc(N3CCc4cccc(C(=O)Nc5nc6ccccc6s5)c4C3)nc2C(=O)O)cnn1CC12CC3CC(CC(C3)C1)C2,> 1,0
Cc1c(Cn2c(C)nc3c(C(=O)O)cc(N4CCOCC4)cc32)cccc1C(F)(F)F,> 10,0
Cc1ccc(C(=O)N(CCCN)[C@@H](c2oc3cc(Cl)ccc3c(=O)c2Cc2ccccc2)C(C)C)cc1,> 0.1,0
Cc1cccc(CC(=O)N2CCc3c2ccc(-c2cn(C)c4ncnc(N)c24)c3F)n1,> 2.5,0
Cc1nc(Nc2n[nH]c3c2CN(C(=O)N[C@H](CN(C)C)c2ccccc2)C3(C)C)c2sccc2n1,2.86,7.4
Cc1ncc(Cl)cc1NCc1ccc(C(=O)N[C@@H](CC2CCCC2)C(=O)NC2CC2)s1,> 5,0
Cn1cc(-c2ccc(F)c(C(F)(F)F)c2)nc1C1CCN(c2ncnc3[nH]ncc23)CC1,> 10,0
Cn1cc(C2=Nc3cc(NC(=O)C(N)C4CCCCC4)cc4c3C2=CNNC4=O)cn1 (stereo unspecified),1.43,9.2
N#Cc1ccc(COC[C@H]2O[C@@H](n3c(NCc4ccc(Cl)c(Cl)c4)nc4c(N)ncnc43)[C@H](O)[C@@H]2O)cc1,> 10,2.2
NCC(=O)Nc1ccc(-n2nc(C(F)(F)F)cc2-c2ccc3c(ccc4ccccc43)c2)cc1,> 25,0.5
NC[C@@](O)(c1ccc(Cl)cc1)c1ccc(-c2cn[nH]c2)cc1,> 10,3.3
Nc1nccc(-c2c(-c3ccc(F)cc3)ncn2C2CCCCC2)n1,> 10,0.3

SMILES,absolute EC50 for viability [1] [µM],drug sensitivity score [2]
Nc1ncnc2c1c(COc1cccc(Cl)c1)nn2C1CCOCC1,> 10,0
O=C(NC[C@H](O)CN1CCc2ccccc2C1)c1cc(NC2COC2)ncn1,> 10,0
O=C(NCc1ccncc1)C12CC3CC(C1)CC(c1ccc(Cl)cc1)(C3)C2,> 50,3.3
O=C(Nc1ccc2[nH]nc(-c3ccncc3)c2c1)[C@@H]1CCN(CC(=O)N2CCN(c3ccc(-c4ncccn4)cc3)CC2)C1,> 10,4
O=C(O)c1ccc(-c2c[nH]c3ncc(-c4ccccc4)cc23)cc1C1CCCC1,> 10,0.7
O=C(O)c1ccc(CN2CCC(CN[C@@H]3C[C@H]3c3ccccc3)CC2)cc1,> 100,0
O=C1Cc2cc(C(=O)NC3C[C@H]4CC[C@@H](C3)N4S(=O)(=O)CC3CCN(CCCC(F)(F)F)CC3)c(Cl)cc2N1 (stereo partly specified),> 10,0
O=c1[nH]c(C2CCCN2)nc2c1oc1ccc(Cl)cc12 (stereo unspecified),> 10,0.6
COc1ccc(C[C@H](NC(=O)[C@H](C)NC(=O)CN2CCOCC2)C(=O)N[C@@H](Cc2ccccc2)C(=O)C2(C)CO2)cc1 (stereo in doubt) [ONX-0914],0.391,16.1
Cn1cc(C[C@@H](N)C(=O)O)c2ccccc21 [1-methyl-D-tryptophan],> 5,0
CC/C(=C(\c1ccc(O)cc1)c1ccc(OCCN(C)C)cc1)c1ccccc1 [4-hydroxytamoxifen],9.93,0
Nc1ncnc2c1nc(N)n2[C@@H]1O[C@H](CO)[C@@H](O)[C@H]1O [8-amino-adenosine],0.803,21.5
Nc1ncnc2c1nc(Cl)n2[C@@H]1O[C@H](CO)[C@@H](O)[C@H]1O [8-chloro-adenosine],5.35,10.9
COc1cc2c(cc1OCCCN1CCCC1)N=C(N)C21CCC1 [A-366],> 25,2.8
COc1ccc(S(=O)(=O)Nc2cccnc2Nc2ccc(O)cc2)cc1 [ABT-751],> 10,5.5
C[C@H](Nc1ncnc2[nH]cnc12)c1cc2ccc(F)cc2nc1-c1ccccn1 [AMG319],> 1,0.1
CC(C)[C@@H](CS(=O)(=O)C(C)C)N1C(=O)[C@@](C)(CC(=O)O)C[C@H](c2cccc(Cl)c2)[C@H]1c1ccc(Cl)cc1 [AMG-232],0.185,18.7
COCCOc1cnc2ccn([C@H](C)c3nnc4c(F)cc(-c5cnn(C)c5)cn34)c(=O)c2c1 [AMG-337],9.93,0
CC1CCC(n2c3cnccc3c3cnc(Nc4ccc5c(n4)CCN(C(=O)CO)C5)nc32)CC1 (stereo unspecified) [AMG-925],> 1,0
COCC1(CO)C(=O)C2CCN1CC2 (stereo unspecified) [APR-246],> 10,0
CC(C)[C@H](C(=O)Nc1ccc(C(=O)NO)cc1)c1ccccc1 [AR-42],1.94,7.5
